The source of these data is patent publication US20090018134A1, “Compounds - 945” (AstraZeneca AB, priority 2007, published 2009).

T1 sequence (P42345 1362-2549): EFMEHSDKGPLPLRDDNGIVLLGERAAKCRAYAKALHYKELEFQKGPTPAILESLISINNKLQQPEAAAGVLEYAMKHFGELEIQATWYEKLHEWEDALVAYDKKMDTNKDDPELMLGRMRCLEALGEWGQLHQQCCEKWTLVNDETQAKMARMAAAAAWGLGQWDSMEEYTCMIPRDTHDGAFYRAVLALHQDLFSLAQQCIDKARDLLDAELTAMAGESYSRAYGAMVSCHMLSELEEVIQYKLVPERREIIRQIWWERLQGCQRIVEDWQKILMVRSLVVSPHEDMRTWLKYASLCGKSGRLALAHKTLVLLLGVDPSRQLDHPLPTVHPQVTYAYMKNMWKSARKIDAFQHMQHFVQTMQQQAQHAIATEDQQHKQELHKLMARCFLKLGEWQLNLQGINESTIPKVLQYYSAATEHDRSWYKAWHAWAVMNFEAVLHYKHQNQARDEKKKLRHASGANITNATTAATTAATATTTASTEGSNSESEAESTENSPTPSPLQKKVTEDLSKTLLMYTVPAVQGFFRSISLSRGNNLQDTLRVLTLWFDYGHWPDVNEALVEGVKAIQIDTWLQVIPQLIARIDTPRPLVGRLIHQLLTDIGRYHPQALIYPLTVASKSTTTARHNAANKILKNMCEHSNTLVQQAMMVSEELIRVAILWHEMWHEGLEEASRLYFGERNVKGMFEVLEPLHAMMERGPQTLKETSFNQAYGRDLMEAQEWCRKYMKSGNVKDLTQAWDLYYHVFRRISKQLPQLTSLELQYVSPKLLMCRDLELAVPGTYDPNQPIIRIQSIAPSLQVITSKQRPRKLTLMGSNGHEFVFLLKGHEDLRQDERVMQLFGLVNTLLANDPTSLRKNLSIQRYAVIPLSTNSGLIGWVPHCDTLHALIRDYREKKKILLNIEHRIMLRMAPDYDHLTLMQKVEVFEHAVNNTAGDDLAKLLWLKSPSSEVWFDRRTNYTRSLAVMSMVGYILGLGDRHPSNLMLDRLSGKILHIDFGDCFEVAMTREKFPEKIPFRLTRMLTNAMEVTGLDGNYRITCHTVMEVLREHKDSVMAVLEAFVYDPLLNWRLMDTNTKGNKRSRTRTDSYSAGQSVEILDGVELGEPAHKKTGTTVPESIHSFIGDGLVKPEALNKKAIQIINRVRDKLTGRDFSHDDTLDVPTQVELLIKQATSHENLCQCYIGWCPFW

One assay concerns the target T1, mTOR (Homo sapiens, UniProt P42345).
T1 construct: FLAG; made in house
Kind of assay: In Vitro mTOR Kinase Assay (Echo), Test (a)(ii). It is filed as biochemical. The settings on record: read-out: mTOR Kinase Assay (Echo). From the text:
(a)(ii) In Vitro mTOR Kinase Assay (Echo)
The assay used AlphaScreen technology (Gray et al., Analytical Biochemistry, 2003, 313: 234-245) to determine the ability of test compounds to inhibit phosphorylation by recombinant mTOR.
A C-terminal truncation of mTOR encompassing amino acid residues 1362 to 2549 of mTOR (EMBL Accession No. L34075) was stably expressed as a FLAG-tagged fusion in HEK293 cells as described by Vilella-Bach et al., […], 1999, 274, 4266-4272. The HEK293 FLAG-tagged mTOR (1362-2549) stable cell line was routinely maintained at 37° C. with 5% CO2 up to a confluency of 70-90% in Dulbecco's modified Eagle's growth medium (DMEM; Invitrogen Limited, Paisley, UK Catalogue No. 41966-029) containing 10% heat-inactivated foetal calf serum (FCS; Sigma, Poole, Dorset, UK, Catalogue No. F0392), 1% L-glutamine (Gibco, Catalogue No. 25030-024) and 2 mg/ml Geneticin (G418 sulfate; Invitrogen Limited, UK Catalogue No. 1013 1-027). Following expression in the mammalian HEK293 cell line, expressed protein was purified using the FLAG epitope tag using standard purification techniques.
Aliquots (120 nl […]) of each compound dilution were acoustically dispensed placed using a Labcyte Echo 550 into a well of a Greiner 384-well low volume (LV) white polystyrene plate (Greiner Bio-one).
These assay solutions were incubated for 2 hours at room temperature.
Each reaction was stopped by the addition of […] of a mixture of EDTA (50 mM), bovine serum albumin (BSA; 0.5 mg/mL) and Tris-HCl pH 7.4 buffer (50 mM) containing p70 S6 Kinase (T389) 1A5 Monoclonal Antibody (Cell Signalling Technology, Catalogue No. 9206B) and AlphaScreen Streptavidin donor and Protein A acceptor beads (200 ng; Perkin Elmer, Catalogue No. 6760002B and 6760137R respectively) were added and the assay plates were left overnight at room temperature in the dark. The resultant signals arising from laser light excitation at 680 nm were read using a Packard Envision instrument.
The phosphorylated biotinylated peptide that is associated with AlphaScreen Streptavidin donor beads forms a complex with the p70 S6 Kinase (T389) 1A5 Monoclonal Antibody that is associated with Alphascreen Protein A acceptor beads. Upon laser light excitation at 680 nm, the donor bead: acceptor bead complex produces a signal that can be measured. Accordingly, the presence of mTOR kinase activity results in an assay signal. In the presence of an mTOR kinase inhibitor, signal strength is reduced.
mTOR enzyme inhibition for a given test compound was expressed as an IC50 value.
With `CCNC(=O)Nc1ccc(-c2nc(N3CCOC[C@@H]3C)cc(C3(S(C)(=O)=O)CC3)n2)cc1` [Example 1, 3-Ethyl-1-[4-[4-[(3S)-3-methylmorpholin-4-yl]-6-(1-methylsulfonylcyclopropyl)pyrimidin-2-yl]phenyl]urea], the IC50 was determined as 2.76 nM. For `CNC(=O)Nc1ccc(-c2nc(N3CCOC[C@@H]3C)cc(C3(S(C)(=O)=O)CC3)n2)cc1` [Example 1a], the IC50 was 2.79 nM. The same measure, in the same setting: with `C[C@H]1COCCN1c1cc(C2(S(C)(=O)=O)CC2)nc(-c2ccc(NC(=O)NCc3cnn(C)c3)cc2)n1` [Example 2a, 1-[4-[4-[(3S)-3-methylmorpholin-4-yl]-6-(1-methylsulfonylcyclopropyl)pyrimidin-2-yl]phenyl]-3-[(1-methylpyrazol-4-yl)methyl]urea] the figure was 93.2 nM; with `C[C@H]1COCCN1c1cc(C2(S(C)(=O)=O)CC2)nc(-c2ccc(NC(=O)NCC(C)(C)O)cc2)n1` [Example 2aa, 3-(2-hydroxy-2-methylpropyl)-1-[4-[4-[(3S)-3-methylmorpholin-4-yl]-6-(1-methylsulfonylcyclopropyl)pyrimidin-2-yl]phenyl]urea], 27.4 nM; with `C[C@H]1COCCN1c1cc(C2(S(C)(=O)=O)CC2)nc(-c2ccc(NC(=O)NC3(CO)CC3)cc2)n1` [Example 2ab, 3-[1-(hydroxymethyl)cyclopropyl]-1-[4-[4-[(3S)-3-methylmorpholin-4-yl]-6-(1-methylsulfonylcyclopropyl)pyrimidin-2-yl]phenyl]urea], 55.3 nM. For the molecule `C[C@H]1COCCN1c1cc(C2(S(C)(=O)=O)CC2)nc(-c2ccc(NC(=O)NC3COC3)cc2)n1` [Example 2ac, 1-[4-[4-[(3S)-3-methylmorpholin-4-yl]-6-(1-methylsulfonylcyclopropyl)pyrimidin-2-yl]phenyl]-3-(oxetan-3-yl)urea], the IC50 came to 6.41 nM. As for `C[C@H]1COCCN1c1cc(C2(S(C)(=O)=O)CC2)nc(-c2ccc(NC(=O)Nc3ccn(C)n3)cc2)n1` [Example 2ad, 1-[4-[4-[(3S)-3-methylmorpholin-4-yl]-6-(1-methylsulfonylcyclopropyl)pyrimidin-2-yl]phenyl]-3-(1-methylpyrazol-3-yl)urea], the IC50 is 0.705 nM. As to `C[C@H]1COCCN1c1cc(C2(S(C)(=O)=O)CC2)nc(-c2ccc(NC(=O)Nc3ncns3)cc2)n1` [Example 2ae, 1-[4-[4-[(3S)-3-methylmorpholin-4-yl]-6-(1-methylsulfonylcyclopropyl)pyrimidin-2-yl]phenyl]-3-(1,2,4-thiadiazol-5-yl)urea], the IC50 was determined as 0.72 nM. Consider `C[C@H]1COCCN1c1cc(C2(S(C)(=O)=O)CC2)nc(-c2ccc(NC(=O)NCC#N)cc2)n1` [Example 2af, 3-(cyanomethyl)-1-[4-[4-[(3S)-3-methylmorpholin-4-yl]-6-(1-methylsulfonylcyclopropyl)pyrimidin-2-yl]phenyl]urea], for which the IC50 amounted to 46.2 nM. Take `C[C@H]1COCCN1c1cc(C2(S(C)(=O)=O)CC2)nc(-c2ccc(NC(=O)NCc3ncn[nH]3)cc2)n1` [Example 2ag, 1-[4-[4-[(3S)-3-methylmorpholin-4-yl]-6-(1-methylsulfonylcyclopropyl)pyrimidin-2-yl]phenyl]-3-(2H-1,2,4-triazol-3-ylmethyl)urea]: the IC50 is 14.9 nM.

As to `C[C@H]1COCCN1c1cc(C2(S(C)(=O)=O)CC2)nc(-c2ccc(NC(=O)NC3CCC3)cc2)n1` [Example 2c, 3-cyclobutyl-1-[4-[4-[(3S)-3-methylmorpholin-4-yl]-6-(1-methylsulfonylcyclopropyl)pyrimidin-2-yl]phenyl]urea], the IC50 stood at 1.21 nM.

On to `C[C@H]1COCCN1c1cc(C2(S(C)(=O)=O)CC2)nc(-c2ccc(NC(=O)NCc3ncc[nH]3)cc2)n1` [Example 2d, 3-(1H-imidazol-2-ylmethyl)-1-[4-[4-[(3S)-3-methylmorpholin-4-yl]-6-(1-methylsulfonylcyclopropyl)pyrimidin-2-yl]phenyl]urea], for which the IC50 amounted to 23.9 nM. For `C[C@H]1COCCN1c1cc(C2(S(C)(=O)=O)CC2)nc(-c2ccc(NC(=O)NCCN(C)C)cc2)n1` [Example 2e, 3-(2-dimethylaminoethyl)-1-[4-[4-[(3S)-3-methylmorpholin-4-yl]-6-(1-methylsulfonylcyclopropyl)pyrimidin-2-yl]phenyl]urea], the IC50 is 279 nM. Turning to `C[C@H]1COCCN1c1cc(C2(S(C)(=O)=O)CC2)nc(-c2ccc(NC(=O)NC(C)(C)CO)cc2)n1` [Example 2f, 3-(1-hydroxy-2-methyl-propan-2-yl)-1-[4-[4-[(3S)-3-methylmorpholin-4-yl]-6-(1-methylsulfonylcyclopropyl)pyrimidin-2-yl]phenyl]urea], the IC50 was determined as 4.33 nM. Take `C[C@H]1COCCN1c1cc(C2(S(C)(=O)=O)CC2)nc(-c2ccc(NC(=O)Nc3ccon3)cc2)n1` [Example 2g, 1-[4-[4-[(3S)-3-methylmorpholin-4-yl]-6-(1-methylsulfonylcyclopropyl)pyrimidin-2-yl]phenyl]-3-(1,2-oxazol-3-yl)urea]: the IC50 was 0.137 nM.

Consider `C[C@H]1COCCN1c1cc(C2(S(C)(=O)=O)CC2)nc(-c2ccc(NC(=O)Nc3ccccc3)cc2)n1` [Example 2h, 1-[4-[4-[(3S)-3-methylmorpholin-4-yl]-6-(1-methylsulfonylcyclopropyl)pyrimidin-2-yl]phenyl]-3-phenyl-urea], for which the IC50 was 0.272 nM. As for `C[C@H]1COCCN1c1cc(C2(S(C)(=O)=O)CC2)nc(-c2ccc(NC(=O)NCCO)cc2)n1` [Example 2i, 3-(2-hydroxyethyl)-1-[4-[4-[(3S)-3-methylmorpholin-4-yl]-6-(1-methylsulfonylcyclopropyl)pyrimidin-2-yl]phenyl]urea], the IC50 worked out at 2.07 nM. On to `CC(C)NC(=O)Nc1ccc(-c2nc(N3CCOC[C@@H]3C)cc(C3(S(C)(=O)=O)CC3)n2)cc1` [Example 2j, 1-[4-[4-[(3S)-3-methylmorpholin-4-yl]-6-(1-methylsulfonylcyclopropyl)pyrimidin-2-yl]phenyl]-3-propan-2-yl-urea], for which the IC50 came out at 12 nM. The same measure, in the same setting: the same measure for `CCCNC(=O)Nc1ccc(-c2nc(N3CCOC[C@@H]3C)cc(C3(S(C)(=O)=O)CC3)n2)cc1` [Example 2k, 1-[4-[4-[(3S)-3-methylmorpholin-4-yl]-6-(1-methylsulfonylcyclopropyl)pyrimidin-2-yl]phenyl]-3-propyl-urea]: 4.06 nM.

With `CC(C)CNC(=O)Nc1ccc(-c2nc(N3CCOC[C@@H]3C)cc(C3(S(C)(=O)=O)CC3)n2)cc1` [Example 2l, 1-[4-[4-[(3S)-3-methylmorpholin-4-yl]-6-(1-methylsulfonylcyclopropyl)pyrimidin-2-yl]phenyl]-3-(2-methylpropyl)urea], the IC50 stood at 11.6 nM. In the case of `C[C@H]1COCCN1c1cc(C2(S(C)(=O)=O)CC2)nc(-c2ccc(NC(=O)NCC3CC3)cc2)n1` [Example 2m, 3-(cyclopropylmethyl)-1-[4-[4-[(3S)-3-methylmorpholin-4-yl]-6-(1-methylsulfonylcyclopropyl)pyrimidin-2-yl]phenyl]urea], the IC50 came to 5.89 nM. On to `CC(CO)NC(=O)Nc1ccc(-c2nc(N3CCOC[C@@H]3C)cc(C3(S(C)(=O)=O)CC3)n2)cc1` (stereo partly drawn) [Example 2n, 3-(1-hydroxypropan-2-yl)-1-[4-[4-[(3S)-3-methylmorpholin-4-yl]-6-(1-methylsulfonylcyclopropyl)pyrimidin-2-yl]phenyl]urea], for which the IC50 was found to be 8.44 nM.

The assay is the same for the next values; noted with them: table of enzyme assay Test (a)(ii); read-out: Test (a)(ii) IC50.
Consider “1-[4-[4-[1-(2,4-difluorophenyl)sulfonylcyclopro-pyl]-6-[(3S)-3-methylmorpholin-4-yl]pyrimidin-2-yl]phenyl]-3-(2-hydroxyethyl)urea [Example 57b]”, for which the IC50 came out at 4.57 nM.

For “3-(2,2-difluoroethyl)-1-[4-[4-[1-(2,4-difluorophenyl)sulfonylcyclopro-pyl]-6-[(3S)-3-methylmorpholin-4-yl]pyrimidin-2-yl]phenyl]urea [Example 57d]”, the IC50 was 10 nM. Same read-out and setting: with “3-(3-hydroxypropyl)-1-[4-[4-[1-(3-hydroxypropylsulfonyl)cyclopro-pyl]-6-[(3S)-3-methylmorpholin-4-yl]pyrimidin-2-yl]phenyl]thiourea [Example 37f]” the figure was 120 nM; with `C[C@H]1COCCN1c1cc(C2(S(C)(=O)=O)CC2)nc(-c2ccc(NC(=O)NC3CCC3)cc2)n1` [Example 2c, 3-cyclobutyl-1-[4-[4-[(3S)-3-methylmorpholin-4-yl]-6-(1-methylsulfonylcyclopropyl)pyrimidin-2-yl]phenyl]urea], 1.86 nM; with `C[C@H]1COCCN1c1cc(C2(S(C)(=O)=O)CC2)nc(-c2ccc(NC(=O)Nc3ccon3)cc2)n1` [Example 2g, 1-[4-[4-[(3S)-3-methylmorpholin-4-yl]-6-(1-methylsulfonylcyclopropyl)pyrimidin-2-yl]phenyl]-3-(1,2-oxazol-3-yl)urea], 0.231 nM. Consider `CCCNC(=O)Nc1ccc(-c2nc(N3CCOC[C@@H]3C)cc(C3(S(C)(=O)=O)CC3)n2)cc1` [Example 2k, 1-[4-[4-[(3S)-3-methylmorpholin-4-yl]-6-(1-methylsulfonylcyclopropyl)pyrimidin-2-yl]phenyl]-3-propyl-urea], for which the IC50 was 3.81 nM.
